Laboratory results reported in patent US20050064001A1, “Multi-layer adjuvants for controlled delivery of agro-materials into plant tissues” (priority 2001, published 2005).

Columns and labels:
[1] = system: Citrus Lemon Urika chlorotic foliage; test: Biological activity of iron sprayed on chlorotic foliage (leaf color, chlorophyll, iron content, leaf burns); assay type: in vivo; conditions: for Leaf Color: score 1 yellow, 2 light green, 3 vigorously green leaves
Source text: Effect of Ferri-Vant (Multi-Layer Adjuvant Coated Fe2(SO4)3 on the Biological Activity of Iron Sprayed on Citrus Lemon Urika Chlorotic Foliage
The Ferri-Vant effect was compared with the untreated control, Fe2(SO4)3 sprayed alone and Fe2(SO4)3 treated with the surfactant Silwet^R L-77. Ten leaves from five trees sprayed for each treatment were sampled and scored for green color. The scoring was based as follows: 1—yellow leaves; 2—light green leaves; 3—vigorously green leaves. Chlorophyll level was determined spectrophotometrically as reported by Moran [Moran, R., Plant Physiol. 69:1376-1381 […]]. Iron content was obtained using the ICP system and leaf burns were visually detected.

[2] = system: Citrus Grandis isolated cuticles; test: Penetration of phosphorous (32P) through isolated cuticles; assay type: in vitro ADME; conditions: 60% relative humidity, 25° C.
Experimental: Effect of MKP-Nutri-Vant^R I on the Percent of Penetration of Phosphorous (^32P) Through Citrus Grandis Isolated Cuticles
(§1) The experiment was carried out for three weeks in a controlled shaking chamber set at 60% relative humidity and 25° C. The values are calculated from the transformation formula −ln(1−Mt/Mo). Mt is the accumulation of radioactivity penetrated in each time period tested; Mo is the total radioactivity applied to the isolated cuticle, based on Schönherr and Riederer [Schonherr, J. and M. Riederer, Plant Cell Environ. […] The values are the means of at least 20 replicates ±S.E.

Citrus Grandis leaves = test: Penetration of phosphorous (32P) into leaves; assay type: in vitro ADME; conditions: 60% relative humidity, 25° C.
Experimental: as §1
Effect of MKP-Nutri-Vant II on the Percent of Penetration of Phosphorous (^32P) into Citrus Grandis Leaves
The experiment was carried out for two weeks in a controlled shaking chamber set at 60% relative humidity and 25° C. All the details are similar to those in the previous table.

| Compound | Leaf Color ([1]; day 0) | Leaf Color ([1]; day 2) | Iron Content at day4 ([1]; day 4, leaves, ICP system) [mg/g] | Leaf Color ([1]; day 4) | Chlorophyll level at day 4, Chl. A ([1]; day 4, spectrophotometric) [mg/sq. cm leaf area] | Chlorophyll level at day 4, Chl. B ([1]; day 4, spectrophotometric) [mg/sq. cm leaf area] | Leaf Color ([1]; day 10) | % Penetration of 32P ([2]; 0 hours, mean of at least 20 replicates ±S.E.) [%] | % Penetration of 32P ([2]; 24 hours, mean ±S.E.) [%] | % Penetration of 32P ([2]; 48 hours, mean ±S.E.) [%] | % Penetration of 32P ([2]; 96 hours, mean ±S.E.) [%] | % Penetration of 32P ([2]; 168 hours, mean ±S.E.) [%] | % Penetration of 32P ([2]; 336 hours, mean ±S.E.) [%] | % Penetration of 32P ([2]; 504 hours, mean ±S.E.) [%] | % Penetration of 32P (Citrus Grandis leaves; 0 hours) [%] | % Penetration of 32P (Citrus Grandis leaves; 48 hours) [%] | % Penetration of 32P (Citrus Grandis leaves; 96 hours) [%] | % Penetration of 32P (Citrus Grandis leaves; 168 hours) [%] | % Penetration of 32P (Citrus Grandis leaves; 336 hours) [%] |
| --- | --- | --- | --- | --- | --- | --- | --- | --- | --- | --- | --- | --- | --- | --- | --- | --- | --- | --- | --- |
| O=S(=O)([O-])[O-].O=S(=O)([O-])[O-].O=S(=O)([O-])[O-].[Fe+3].[Fe+3] [Fe2(SO4)3 alone, Fe2(SO4)3] | 1 | 1 | 0.61 | 1.3 ± 0.4 | 2.8 | 1.2 | 1.2 ± 0.4 | – | – | – | – | – | – | – | – | – | – | – | – |
| O=P([O-])(O)O.[K+] [MK^32P alone, Monopotassium phosphate] | – | – | – | – | – | – | – | 0 | 2.6 ± 0.8 | 3.4 ± 1.1 | 5.7 ± 1.4 | 6.3 ± 1.9 | 7.5 ± 1.6 | 7.9 ± 1.9 | 0 | 3.1 ± 0.8 | 4.7 ± 0.6 | 5.5 ± 0.6 | 6.4 ± 0.4 |
